Laboratory results from ChEMBL document CHEMBL1150762, “Homology modeling and site-directed mutagenesis to identify selective inhibitors of endothelin-converting enzyme-2” (J Med Chem, 2008).

What was measured:
[1] = molecular target: T1, Endothelin-converting enzyme 2 (Homo sapiens, UniProt P0DPD6); test: Reduction of recombinant ECE2 activity measured by McaBk2 fluorescent substrate hydrolysis
T1 sequence (P0DPD6 whole entry): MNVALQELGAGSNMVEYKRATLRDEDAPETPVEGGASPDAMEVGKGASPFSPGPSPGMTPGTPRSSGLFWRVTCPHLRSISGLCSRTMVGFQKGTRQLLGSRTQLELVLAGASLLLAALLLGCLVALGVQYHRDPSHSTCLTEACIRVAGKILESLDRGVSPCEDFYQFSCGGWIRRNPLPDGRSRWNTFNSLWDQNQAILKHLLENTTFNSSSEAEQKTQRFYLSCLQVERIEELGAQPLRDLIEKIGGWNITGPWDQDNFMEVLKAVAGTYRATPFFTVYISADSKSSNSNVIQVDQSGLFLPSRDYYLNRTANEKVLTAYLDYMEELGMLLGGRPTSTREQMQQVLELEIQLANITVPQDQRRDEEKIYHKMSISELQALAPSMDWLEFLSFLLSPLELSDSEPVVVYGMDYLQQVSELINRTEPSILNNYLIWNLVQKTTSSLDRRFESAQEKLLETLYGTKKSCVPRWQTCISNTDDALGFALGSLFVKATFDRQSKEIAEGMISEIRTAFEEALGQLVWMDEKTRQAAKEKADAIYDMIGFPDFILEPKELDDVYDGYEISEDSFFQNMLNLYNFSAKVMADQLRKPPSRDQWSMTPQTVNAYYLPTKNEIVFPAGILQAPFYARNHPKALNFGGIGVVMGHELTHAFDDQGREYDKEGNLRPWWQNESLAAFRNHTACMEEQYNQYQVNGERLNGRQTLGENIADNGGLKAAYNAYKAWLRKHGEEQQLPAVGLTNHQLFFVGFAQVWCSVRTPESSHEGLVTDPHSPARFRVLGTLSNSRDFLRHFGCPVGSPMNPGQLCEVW

[2] = molecular target: Neprilysin (Homo sapiens, UniProt P08473); test: Inhibition of Neprilysin
Sequence of Neprilysin (P08473 whole entry): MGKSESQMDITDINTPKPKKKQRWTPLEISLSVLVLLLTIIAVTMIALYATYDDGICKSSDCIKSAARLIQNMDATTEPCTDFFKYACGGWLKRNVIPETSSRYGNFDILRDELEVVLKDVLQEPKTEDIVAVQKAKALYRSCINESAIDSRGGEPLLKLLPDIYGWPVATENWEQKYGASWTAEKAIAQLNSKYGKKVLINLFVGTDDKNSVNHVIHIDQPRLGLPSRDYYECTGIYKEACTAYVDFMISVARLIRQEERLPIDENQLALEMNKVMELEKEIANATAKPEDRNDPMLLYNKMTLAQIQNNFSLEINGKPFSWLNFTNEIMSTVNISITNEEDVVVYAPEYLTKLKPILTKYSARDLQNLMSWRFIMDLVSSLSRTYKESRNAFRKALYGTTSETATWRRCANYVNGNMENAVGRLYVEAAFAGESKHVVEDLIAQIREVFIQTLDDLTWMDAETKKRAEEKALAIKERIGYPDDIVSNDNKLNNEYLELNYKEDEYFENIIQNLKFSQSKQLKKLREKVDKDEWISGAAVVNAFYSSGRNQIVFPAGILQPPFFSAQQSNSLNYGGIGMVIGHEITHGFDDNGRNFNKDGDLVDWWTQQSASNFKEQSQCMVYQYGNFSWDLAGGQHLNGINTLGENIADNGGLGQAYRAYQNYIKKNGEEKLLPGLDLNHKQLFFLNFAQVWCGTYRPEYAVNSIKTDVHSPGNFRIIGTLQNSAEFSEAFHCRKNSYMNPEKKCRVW

[3] = molecular target: T2, Endothelin-converting enzyme 2 (Homo sapiens) (UniProt P0DPD6); test: Reduction of recombinant ECE2 activity measured by McaBk2 fluorescent substrate hydrolysis at 10 uM; set-up: scale not given: the % may be the effect or the level left
T2 sequence (whole entry): T1 sequence (P0DPD6 whole entry)

Molecule `COc1cccc(/C=C/c2ccc3cccc(O)c3n2)c1O` has an IC50 [1] of 32.9 µM.
Molecule `COc1cccc(/C=C/c2ccc3cccc(O)c3n2)c1` has an IC50 [1] of 35.7 µM.
`Oc1ccccc1/C=C/c1ccc2ccccc2n1` gave an IC50 [2] of over 100 µM, an Activity [3] of over 70% and an IC50 [1] of 6.42 µM.
Molecule `Oc1ccccc1/C=C\c1ccc2ccccc2n1` has an IC50 [1] of 4.63 µM.
For `O=C(Cc1ccc2nccnc2c1)N1CCCC1`, the IC50 [2] was over 50 µM, the Activity [3] was over 70% and the IC50 [1] was 5.83 µM.
